Key:
[1] = system: bovine tubulin; assay: In vitro tubulin polymerization assay (turbidity at 340 nm); format: biochemical; conditions: 10 μM compound, 30 minute data point, vs 1% DMSO control
Procedure, shortened: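 Percent inhibition derives from turbidity (340 nm) at 30 min relative to 1% DMSO controls, read every minute at 37° C. Polymerization mix: 3 mg/ml bovine tubulin, <3% MAPs, in PIPES pH 7 G-PEM with 1 mM GTP, 1 mM MgCl2, 5% glycerol; enhancers also detectable.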

[2] = system: A431 human cancer cell line; assay: Sulphorhodamine B (SRB) growth inhibition assay; format: cell-based; conditions: A-431, A431 cells, 48 hours, read-out: SRB Assay: μM required to inhibit tumor cell growth by 50% (GI50)
Protocol: The in vitro growth inhibition activity of the compounds was determined by the Sulphorhodamine B assay. (Skehan P, Storeng R, Scudiero D, Monks A, McMahon J, Vistica D, Warren J T, Bokesch H, Kenney S, Boyd M R. New colorimetric cytotoxicity assay for anticancer-drug screening. J Natl Cancer Inst 82, 1107-1112, 1990). Sulphorhodamine B binds to basic amino acids and stains proteins which can be eluted and detected spectrophotometically by measuring absorbance at 515 nm. The absorbance was indicative of the total protein content of the cells fixed to the walls of the plate well at a given time by trichloroacetic acid, which is a measure of the viable cell concentration.
The in vitro growth inhibition activity of the compounds was determined using a Sulphorhodamine B assay. See, Skehan et al., “New colorimetric cytotoxicity assay for anticancer-drug screening,” J. Natl. Cancer Inst., 82, 1107-1112, (1990). Sulphorhodamine B binds to basic amino acids and stains proteins which can be eluted and detected spectrophotometically by measuring absorbance at 515 nm. The absorbance indicates the total protein content of the cells fixed to the walls of the plate well at a given time by trichloroacetic acid, which is a measure of the viable cell concentration.
The reagents used in the assay can be purchased from commercial sources and include Sulphorhodamine B 0.4% (w/v) in 1% (v/v) acetic acid (Sigma Cat#S-1402); trichloroacetic acid 50% (w/v) in deionized water, working solution (Sigma Cat#T-9159); and trizma base (Tris) 10 mM working solution, pH 7.5 (Sigma Cat#T-7693).
The procedure was cared out over four days. In Day 1, the cells were seeded in a seed 10,000 cells/100 μL/well in 96 well plate in duplicates as per template. Also, seed cells in extra plate for time zero (To plate). Thereafter, the cells were incubated for 24 hours at 37° C. with 5% CO2.
On Day 2, the test compound was added to the cells at five log doses from 100 μM to 0.01 μM (Volume of addition=100 μL in 1% DMSO for all compound concentrations, Control treatment=1% DMSO).
The compounds were prepared by weighing the test compounds in 1.5 ml eppendorf tubes and calculating the volume of DMSO to be added to bring the concentration of the compound to 20 mM. Thereafter, a 20 mM stock was made and diluted by four 10 fold dilutions in DMSO to get 2, 0.2, 0.02 and 0.002 mM solutions. Each solution was diluted 100 times (10 μL to 1 ml medium) and a further addition to the culture plate (100 μL) to half the concentration of cells was made. The final well concentration for 20 mM stock was 100 μM and similarly with other test concentrations.
The cells were incubated for 48 hours at 37° C. with 5% CO2 and terminated by adding 50 μL of 50% cold trichloroacetic acid (10% to final). Thereafter, the cells were incubated for one hour at 4° C.
On Day 4, the cells were fixed to the wells by the addition of 50 μL of 50% cold trichloroacetic acid (10% to final) and incubated for 1 hour at 4° C. The supernatant was discarded by force inverting the plate into the sink followed by washing thrice with tap water and the plates are then air-dried. 100 μL SRB (0.4% in 1% acetic acid) was added to each well and the plates were incubated for 10 minutes at room temperature. Unbound dye was removed by force inverting the plate into the sink and washing thrice with 1% acetic acid. Thereafter, the plates were allowed to air dry.
Bound SRB was solubilized with 100 μL of 10 mM Tris, pH 7.4 and the absorbance was measured at a wavelength of 515 nm.
A sample set of calculations was performed as follows. The percentage growth was calculated by T-To/C-To X 100 if T>To and T-To/To X 100 if T<To, wherein T is Test OD (with compound), C is Control OD, To is Time Zero OD (cell growth at the time of drug addition). […]

[3] = system: A431, human epidermoid carcinoma cells; assay: Cell cycle analysis (FACS), mitotic arrest in G2/M; format: cell-based; conditions: Homo sapiens, A-431, 24 h, read-out: FACS Assay: concentration required to achieve inhibition in FACS assay
Procedure, shortened: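 A431 cells, 500,000/well at treatment, exposed to compounds at 0.01–1 μM final (0.1% DMSO) for 24 h. Ethanol-fixed cells RNase-treated (1 μg/ml, 37° C., 15 min), stained with propidium iodide (50 μg/ml, 30 min, RT). DNA ploidy by flow cytometry; mitotic arrest scored as G2/M accumulation.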

| SMILES | GI50 [2] | Tubulin Assay: percent inhibition at 10 μM based on 30 minute data [1] | minimal effective concentration [3] |
| --- | --- | --- | --- |
| Fc1ccc(OCc2nnc(-c3cccnc3NCc3ccc4c(c3)OCO4)[nH]2)cc1 [Compound 109, Benzo[1,3]dioxol-5-ylmethyl-{3-[5-(4-fluoro-phenoxymethyl)-4H-[1,2,4]triazol-3-yl]-pyridin-2-yl}-amine] | 30 µM | 41% |  |
| COc1cc(OC)cc(-c2nnc(-c3cccnc3NCc3cccnc3)[nH]2)c1 [Compound 87, {3-[5-(3,5-Dimethoxy-phenyl)-4H-[1,2,4]triazol-3-yl]-pyridin-2-yl}-pyridin-3-ylmethyl-amine] | 30 µM | 85% |  |
| COc1cccc(Nc2nnc(-c3cccnc3NCc3cccnc3)o2)c1 [Compound 185, {3-[5-(3-Methoxy-phenylamino)-[1,3,4]oxadiazol-2-yl]-pyridin-2-yl}-pyridin-3-ylmethyl-amine] | 30 µM | 40% |  |
| CS(=O)(=O)c1ccc(-c2nnc(-c3cccnc3NCCCN3CCCC3=O)[nH]2)cc1 [Compound 75, 1-(3-{3-[5-(4-Methanesulfonyl-phenyl)-4H-[1,2,4]triazol-3-yl]-pyridin-2-ylamino}-propyl)-pyrrolidin-2-one] | 80 µM | 60% |  |
| Fc1cccc(-c2nnc(-c3cccnc3NCc3ccc4c(c3)OCO4)[nH]2)c1 [Compound 82, Benzo[1,3]dioxol-5-ylmethyl-{3-[5-(3-fluoro-phenyl)-4H-[1,2,4]triazol-3-yl]-pyridin-2-yl}-amine] | 20 µM | 30% |  |
| COc1ccc(Nc2nnc(-c3cccnc3Nc3ccc4c(c3)OCO4)[nH]2)c(OC)c1 [Compound 10, Benzo[1,3]dioxol-5-yl-{3-[5-(2,4-dimethoxy-phenylamino)-4H-[1,2,4]triazol-3-yl]-pyridin-2-yl}-amine] | 20 µM | 73% |  |
| COc1cc(CNc2ncccc2-c2nnc(-c3cccc(OC)c3)[nH]2)cc(OC)c1 [Compound 79, (3,5-Dimethoxy-benzyl)-{3-[5-(3-methoxy-phenyl)-4H-[1,2,4]triazol-3-yl]-pyridin-2-yl}-amine] | 20 µM | 32% |  |
| c1ccc(-c2nnc(Nc3ccc4c(c3)OCCO4)[nH]2)c(NCc2ccc3[nH]ncc3c2)c1 [Compound 117, (2,3-Dihydro-benzo[1,4]dioxin-6-yl)-(5-{2-[(1H-indazol-5-ylmethyl)-amino]-phenyl}-4H-[1,2,4]triazol-3-yl)-amine] |  | 84% | 1 µM |
| COc1cc(Nc2ncccc2-c2nnc(Nc3ccc4c(c3)OCCO4)[nH]2)cc(OC)c1 [Compound 50, {3-[5-(2,3-Dihydro-benzo[1,4]dioxin-6-ylamino)-4H-[1,2,4]triazol-3-yl]-pyridin-2-yl}-(3,5-dimethoxy-phenyl)-amine] |  | 90% | 0.1 µM |
| Fc1ccc(CNc2ncccc2-c2nnc(Nc3ccc4c(c3)OCCO4)[nH]2)cc1F [Compound 44, (3,4-Difluoro-benzyl)-{3-[5-(2,3-dihydro-benzo[1,4]dioxin-6-ylamino)-4H-[1,2,4]triazol-3-yl]-pyridin-2-yl}-amine] |  | 84% | 1 µM |
| c1cnc(N2CCOCC2)c(-c2nnc(Nc3ccc4c(c3)OCCO4)o2)c1 [Compound 170, (2,3-Dihydro-benzo[1,4]dioxin-6-yl)-[5-(2-morpholin-4-yl-pyridin-3-yl)-[1,3,4]oxadiazol-2-yl]-amine] |  | 55% | 0.1 µM |

The next lines start with results.

| GI50 [2] | SMILES | Tubulin Assay: percent inhibition at 10 μM based on 30 minute data [1] | minimal effective concentration [3] |
| --- | --- | --- | --- |
| 5 µM | CS(=O)(=O)c1ccc(-c2nnc(-c3cccnc3NCc3cccnc3)[nH]2)cc1 [Compound 89, {3-[5-(4-Methanesulfonyl-phenyl)-4H-[1,2,4]triazol-3-yl]-pyridin-2-yl}-pyridin-3-ylmethyl-amine] | 85% |  |
| 10 µM | c1ccc(-c2nnc(Nc3ccc4c(c3)OCO4)[nH]2)c(NCc2ccncc2)c1 [Compound 111, Benzo[1,3]dioxol-5-yl-(5-{2-[(pyridin-4-ylmethyl)-amino]-phenyl}-4H-[1,2,4]triazol-3-yl)-amine] | 70% |  |
| 0.3 µM | COc1cc(Nc2ncccc2-c2nnc(Nc3ccc(OC)c(OC)c3)o2)cc(OC)c1 [Compound 178, (3,5-Dimethoxy-phenyl)-{3-[5-(3,4-dimethoxy-phenylamino)-[1,3,4]oxadiazol-2-yl]-pyridin-2-yl}-amine] | 40% |  |
| 15 µM | COc1ccc(Nc2nnc(-c3cccnc3NCc3cccnc3)o2)cc1OC [Compound 190, {3-[5-(3,4-Dimethoxy-phenylamino)-[1,3,4]oxadiazol-2-yl]-pyridin-2-yl}-pyridin-3-ylmethyl-amine] | 56% |  |
| 10 µM | c1cnc(NCc2ccc3c(c2)OCO3)c(-c2nnc(Nc3ccc4c(c3)OCO4)[nH]2)c1 [Compound 33, {3-[5-(Benzo[1,3]dioxol-5-ylamino)-4H-[1,2,4]triazol-3-yl]-pyridin-2-yl}-benzo[1,3]dioxol-5-ylmethyl-amine] | 60% |  |
| 2.2 µM | FC(F)(F)c1ccc(-c2nnc(-c3cccnc3NCc3cccnc3)[nH]2)cc1 [Compound 86, Pyridin-3-ylmethyl-{3-[5-(4-trifluoromethyl-phenyl)-4H-[1,2,4]triazol-3-yl]-pyridin-2-yl}-amine] | 31% |  |
| 3 µM | O=C1CCCN1CCCNc1ncccc1-c1nnc(Nc2ccc3c(c2)OCO3)o1 [Compound 194, 1-(3-{3-[5-(Benzo[1,3]dioxol-5-ylamino)-[1,3,4]oxadiazol-2-yl]-pyridin-2-ylamino}-propyl)-pyrrolidin-2-one] | 80% |  |
| 8 µM | COc1cccc(-c2nnc(-c3cccnc3NCc3ccc4c(c3)OCO4)[nH]2)c1 [Compound 80, Benzo[1,3]dioxol-5-ylmethyl-{3-[5-(3-methoxy-phenyl)-4H-[1,2,4]triazol-3-yl]-pyridin-2-yl}-amine] | 46% |  |
| 2.75 µM | FC(F)(F)c1cccc(-c2nnc(-c3ccccc3NCc3cccnc3)[nH]2)c1 [Compound 130, Pyridin-3-ylmethyl-{2-[5-(3-trifluoromethyl-phenyl)-4H-[1,2,4]triazol-3-yl]-phenyl}-amine] | 47% |  |
| 2.5 µM | COc1cc(Nc2nnc(-c3cccnc3NCc3ccc4c(c3)OCO4)[nH]2)cc(OC)c1 [Compound 16, Benzo[1,3]dioxol-5-ylmethyl-{3-[5-(3,5-dimethoxy-phenylamino)-4H-[1,2,4]triazol-3-yl]-pyridin-2-yl}-amine] | 41% |  |
